Reference: PMC1977912 (British Journal of Cancer, 1992)
“Also recorded” adds a separate entry of the source. Where two headings read alike, the source gives them in different places.

How the values were obtained:
AR4-2J cells [1] = assay: Effect of exogenous gastrin on AR4-2J proliferation in serum-free medium (MTT assay); format: cell-based, rat; conditions: up to 5 x 10^-6 M
HT-29 cells = assay: HT-29 cell proliferation (MTT assay); format: cell-based, human
AR4-2J cells [2] = assay: Reversal by exogenous gastrin of antagonist-induced inhibition of AR4-2J proliferation; format: cell-based, rat; conditions: 5 x 10^-7 M gastrin added 2 h before the antagonist at its growth IC50
AR4-2J cells [3] = assay: Inhibition of unsynchronised AR4-2J cell proliferation by gastrin/CCK receptor antagonists (MTT assay, direct cell counts); format: cell-based; conditions: Rattus norvegicus, AR-42J, 96 h, read-out: half maximal inhibitory concentration, AR4-2J proliferation
gastrin/CCK-B receptors = molecular target: T1, gastrin/CCK-B receptors (Rattus norvegicus, UniProt P30553); assay: Displacement of 125I-hG17-1 binding to AR4-2J cells; conditions: read-out: IC50 for displacing 125I-hG17-1 binding
T1 construct: AR4-2J cells were harvested, washed three times with Eagle's modified essential medium; host or cells: AR4-2J rat pancreatic acinar tumour cells (intact cells)
T1 sequence (P30553 1-452): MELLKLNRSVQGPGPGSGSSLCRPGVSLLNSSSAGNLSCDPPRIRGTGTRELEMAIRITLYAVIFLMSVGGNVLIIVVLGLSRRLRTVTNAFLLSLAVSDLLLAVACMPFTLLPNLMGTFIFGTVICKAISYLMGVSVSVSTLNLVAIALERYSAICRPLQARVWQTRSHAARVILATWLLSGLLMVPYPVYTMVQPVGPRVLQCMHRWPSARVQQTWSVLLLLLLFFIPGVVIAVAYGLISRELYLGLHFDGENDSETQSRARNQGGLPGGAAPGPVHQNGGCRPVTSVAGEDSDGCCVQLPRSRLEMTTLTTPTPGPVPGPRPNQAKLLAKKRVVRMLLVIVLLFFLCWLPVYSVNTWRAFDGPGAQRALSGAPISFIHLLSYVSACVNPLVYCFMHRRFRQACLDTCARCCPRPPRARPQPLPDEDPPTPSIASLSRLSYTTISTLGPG

| Compound | effect of prior addition of gastrin on the inhibition of cell growth (AR4-2J cells [2]) | also measured |
| --- | --- | --- |
| gastrin | – | effect on proliferation of asynchronous AR4-2J cells (AR4-2J cells [1]): no significant effect; effect on HT-29 proliferation (HT-29 cells): neither exogenous gastrin nor an anti-gastrin Ig preparation effected proliferation |
| CCCCCN(CCCCC)C(=O)C(CCC(=O)O)NC(=O)c1ccc(Cl)c(Cl)c1 (racemic) [lorglumide, D, L-4-(3,4-dichlorobenzoylamino)-5-(di-n-pentylamino)-5-oxo-pentanoic acid] | partially reversed | – |
| CN1C(=O)[C@@H](NC(=O)c2cc3ccccc3[nH]2)N=C(c2ccccc2)c2ccccc21 [devazepide, 3S (- )-N-(2,3-dihydro-l-methyl-2-oxo-5-phenyl-1 H-1,4-benzodiazepine-3-yl) -1H-indole-2-carboxamide] | not reversed; also recorded: not significantly effected | IC50 (AR4-2J cells [3]): 17 µM |
| Cc1cccc(NC(=O)N[C@@H]2N=C(c3ccccc3)c3ccccc3N(C)C2=O)c1 [L-365,260, 3R(+)-N-(2,3-dihydro-1-methyl-2-oxo-5-phenyl-1H-1 ,4-benzodiazepin-3-yl) -N'-(3-methylphenyl)urea] | not reversed; also recorded: not significantly effected | – |
| O=C(N[C@@H](Cc1c[nH]c2ccccc12)C(=O)O)c1ccc(Cl)cc1 [benzotript, N-p-chlorobenzoyl-L- tryptophan] | partially reversed | IC50 (gastrin/CCK-B receptors): 260 µM |
| CCCN(CCC)C(=O)C(CCC(=O)O)NC(=O)c1ccccc1 (racemic) [proglumide, D,L-4-benzamido-N,N-di-n-propylgluta-ramic acid] | partially reversed | IC50 (AR4-2J cells [3]; 4 day incubation, text statement of range): 3000 µM; IC50 (gastrin/CCK-B receptors): 1300 µM |
| CCCCCN(CCCOC)C(=O)C(CCC(=O)O)NC(=O)c1ccc(Cl)c(Cl)c1 (racemic) [loxiglumide, D,L-4-(3,4-di-chlorobenzoylamino) -5-(N-3-methoxypropylpentylamino)-5-oxo-pentanoic acid] | partially reversed | – |
